Source: ChEMBL document CHEMBL1201862, “PubChem BioAssay data set” (2004)
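Where inhibition never reached the appropriate level, the endpoint shown equals the highest concentration tested. Otherwise, values were interpolated linearly from a five-concentration, 48-hour dose response in 96-well plates. GI50 is the concentration that inhibits growth by half.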 The source made the active and inactive calls. No stated cut-off is given here; in the data, active = GI50 up to about 1.1 µM and inactive = higher.

Experiments:
Test in all cases: NCI tumour cell line growth inhibition, 48 h
Hs-578T = tested on: Hs-578T
NCI-H23 = tested on: NCI-H23
SK-OV-3 = tested on: SK-OV-3
SK-MEL-2 = tested on: SK-MEL-2
MCF7 = tested on: MCF7
OVCAR-4 = tested on: OVCAR-4
MOLT-4 = tested on: MOLT-4
EKVX = tested on: EKVX
NCI-H522 = tested on: NCI-H522
OVCAR-5 = tested on: OVCAR-5
CAKI-1 = tested on: CAKI-1
SF-268 = tested on: SF-268
K562 = tested on: K562
IGROV-1 = tested on: IGROV-1
HCC 2998 = tested on: HCC 2998
MDA-MB-231 = tested on: MDA-MB-231
COLO 205 = tested on: COLO 205
SW-620 = tested on: SW-620
HOP-92 = tested on: HOP-92
SK-MEL-28 = tested on: SK-MEL-28

Measured: GI50

CC1(C)Oc2ccc3c(=O)c(-c4ccccc4)c(-c4ccccc4)oc3c2C1C(=O)O (configuration not stated)
inactive: Hs-578T 64.9 µM | NCI-H23 > 100 µM | SK-OV-3 > 100 µM | SK-MEL-2 > 100 µM | MCF7 > 100 µM | OVCAR-4 77.1 µM | MOLT-4 48.3 µM | EKVX > 100 µM | NCI-H522 > 100 µM | OVCAR-5 > 100 µM | CAKI-1 > 100 µM | SF-268 > 100 µM | K562 63 µM | IGROV-1 > 100 µM | HCC 2998 > 100 µM | MDA-MB-231 > 100 µM | COLO 205 > 100 µM

O=c1c(Cc2ccc(Cl)cc2)nnc2sc(-c3ccc([N+](=O)[O-])cc3)nn12
inactive: Hs-578T 42 µM | NCI-H23 20.7 µM | SK-OV-3 38.3 µM | SK-MEL-2 15.6 µM | MCF7 19.6 µM | OVCAR-4 28.7 µM | MOLT-4 > 100 µM | SW-620 31.1 µM | EKVX 23.2 µM | OVCAR-5 17.5 µM | CAKI-1 31.1 µM | SF-268 32.1 µM | HOP-92 48.1 µM | K562 15.6 µM | IGROV-1 36.9 µM | HCC 2998 17.9 µM | MDA-MB-231 21 µM

COc1ccc2c(c1)C(=O)C1CCC(=O)N1C2c1ccc2c(c1)OCO2 (configuration not stated)
inactive: Hs-578T 27.2 µM | NCI-H23 15.1 µM | SK-OV-3 26.3 µM | SK-MEL-2 13 µM | MCF7 4.83 µM | OVCAR-4 25.4 µM | MOLT-4 2.74 µM | SW-620 5.36 µM | EKVX 20.3 µM | NCI-H522 5.04 µM | OVCAR-5 14.9 µM | CAKI-1 19.7 µM | SF-268 13.6 µM | K562 3.36 µM | IGROV-1 16.5 µM | HCC 2998 14.8 µM | SK-MEL-28 11.3 µM | MDA-MB-231 12.2 µM | COLO 205 8.65 µM

CC(NC(=O)C(N)CC(=O)O)NC(=O)N(C)C(C)(C)C (configuration not stated)
inactive: Hs-578T > 100 µM | NCI-H23 > 100 µM | SK-OV-3 > 100 µM | SK-MEL-2 > 100 µM | MCF7 > 100 µM | OVCAR-4 > 100 µM | MOLT-4 > 100 µM | SW-620 > 100 µM | EKVX > 100 µM | NCI-H522 > 100 µM | OVCAR-5 > 100 µM | CAKI-1 > 100 µM | SF-268 > 100 µM | K562 > 100 µM | IGROV-1 > 100 µM | HCC 2998 > 100 µM | SK-MEL-28 > 100 µM | MDA-MB-231 > 100 µM | COLO 205 > 100 µM

Nc1nc(Nc2ccc(Cl)cc2)sc1C(=O)c1c[nH]c2ccccc12
inactive: Hs-578T 21.6 µM | NCI-H23 13.4 µM | SK-OV-3 21.4 µM | SK-MEL-2 14.6 µM | MCF7 13.8 µM | OVCAR-4 14.7 µM | SW-620 15.7 µM | OVCAR-5 21.1 µM | SF-268 21.4 µM | HOP-92 20 µM | K562 6.18 µM | IGROV-1 17.3 µM | HCC 2998 11.3 µM | SK-MEL-28 15.4 µM | MDA-MB-231 17.9 µM | COLO 205 3.8 µM

CC1CN=C(N(C(=O)Nc2ccccc2)c2ccc(Cl)c(Cl)c2)S1 (configuration not stated)
inactive: Hs-578T 65 µM | NCI-H23 32.8 µM | SK-OV-3 52.7 µM | SK-MEL-2 18.9 µM | MCF7 19.8 µM | OVCAR-4 75.3 µM | MOLT-4 > 10 µM | SW-620 30.5 µM | EKVX 23.3 µM | OVCAR-5 34.1 µM | CAKI-1 27.9 µM | SF-268 61 µM | HOP-92 17.1 µM | K562 > 10 µM | IGROV-1 41.6 µM | HCC 2998 24.8 µM | SK-MEL-28 40.6 µM | MDA-MB-231 18.2 µM | COLO 205 > 10 µM

c1ccc(C[n+]2ccc3c(c2)CCCC3)cc1
inactive: Hs-578T 49.9 µM | NCI-H23 39.4 µM | SK-OV-3 > 100 µM | SK-MEL-2 84.3 µM | MCF7 52.1 µM | OVCAR-4 56 µM | MOLT-4 > 100 µM | SW-620 > 100 µM | EKVX 10.6 µM | OVCAR-5 > 100 µM | CAKI-1 > 100 µM | SF-268 > 100 µM | HOP-92 > 100 µM | K562 11.7 µM | IGROV-1 > 100 µM | HCC 2998 22.9 µM | SK-MEL-28 > 100 µM | MDA-MB-231 > 100 µM | COLO 205 66.5 µM

CCOC(=O)c1cc(C2CCN(CC(C)CC)C2=S)c(-c2cc(C)no2)[nH]1 (configuration not stated)
inactive: Hs-578T 89.7 µM | NCI-H23 > 100 µM | SK-OV-3 > 100 µM | SK-MEL-2 > 100 µM | MCF7 89.3 µM | OVCAR-4 > 100 µM | MOLT-4 44.1 µM | SW-620 > 100 µM | EKVX 14.7 µM | OVCAR-5 > 100 µM | CAKI-1 > 100 µM | SF-268 69.3 µM | HOP-92 38 µM | K562 77.4 µM | IGROV-1 > 100 µM | HCC 2998 > 100 µM | SK-MEL-28 > 100 µM | MDA-MB-231 29.6 µM | COLO 205 37.4 µM

CC[S+]([O-])C(=O)N(O)c1ccc(Cl)cc1 (configuration not stated)
inactive: Hs-578T 41.2 µM | SK-OV-3 > 100 µM | SK-MEL-2 15.3 µM | MCF7 20.4 µM | OVCAR-4 38.3 µM | MOLT-4 9.64 µM | SW-620 18 µM | EKVX 26.7 µM | OVCAR-5 17.7 µM | CAKI-1 17.7 µM | SF-268 20.8 µM | HOP-92 29.9 µM | K562 16.2 µM | HCC 2998 43.3 µM | SK-MEL-28 17.4 µM | MDA-MB-231 29.4 µM | COLO 205 36 µM

COc1cc(C2SC(=N)Nc3c2c(C)nn3C(=O)c2ccccc2O)cc(OC)c1OC (configuration not stated)
inactive: Hs-578T 3.57 µM | NCI-H23 8.3 µM | SK-OV-3 1.66 µM | SK-MEL-2 > 10 µM | MCF7 > 10 µM | OVCAR-4 4.89 µM | MOLT-4 4 µM | SW-620 > 10 µM | EKVX > 10 µM | OVCAR-5 > 10 µM | CAKI-1 6.05 µM | SF-268 6.71 µM | HOP-92 3.12 µM | K562 2.81 µM | IGROV-1 2.04 µM | SK-MEL-28 > 10 µM | MDA-MB-231 7.89 µM | COLO 205 > 10 µM

O=c1n(/N=C/c2ccccc2)c(=O)n2n1C1C=CC2CC1
inactive: Hs-578T > 100 µM | NCI-H23 > 100 µM | SK-OV-3 > 100 µM | SK-MEL-2 > 100 µM | MCF7 > 100 µM | MOLT-4 > 100 µM | SW-620 > 100 µM | EKVX > 100 µM | OVCAR-5 > 100 µM | CAKI-1 > 100 µM | SF-268 > 100 µM | HOP-92 > 100 µM | K562 > 100 µM | IGROV-1 > 100 µM | SK-MEL-28 > 100 µM | MDA-MB-231 > 100 µM | COLO 205 > 100 µM
